From ChEMBL document CHEMBL6083251, “"Pseudosubstrate Envelope"/Free Energy Perturbation-Guided Design and Mechanistic Investigations of Benzothiazole HIV Capsid Modulators with High Ligand Efficiency” (J Med Chem, 2024)

Legend:
[1] = target: Structural capsid protein (Human immunodeficiency virus 1) (UniProt Q76129); experiment: Binding affinity to hexameric HIV-1 NL4.3 capsid protein assessed as residence time by SPR assay; conditions: filed as modulator
[2] = tested on: Human immunodeficiency virus 1; experiment: Anti-HIV activity against HIV-1 IIIB infected in human MT4 cells assessed as protection against virus-induced cytopathic effect incubated for 5 days by spectrophotometric based MTT assay; conditions: Human immunodeficiency virus 1, IIIB, MT4, 120 h
[3] = target: Structural capsid protein (Human immunodeficiency virus 1) (UniProt Q76129); experiment: Binding affinity to hexameric HIV-1 NL4.3 capsid protein assessed as dissociation rate (Koff) by SPR assay; conditions: filed as modulator
[4] = target: Structural capsid protein (Human immunodeficiency virus 1) (UniProt Q76129); experiment: Binding affinity to monomeric HIV-1 NL4.3 capsid protein assessed as dissociation rate (Koff) by SPR assay; conditions: filed as modulator
[5] = tested on: MT4; experiment: Cytotoxicity against human MT4 cells assessed as reduction in cell viability incubated for 5 days by spectrophotometric based MTT assay; assay type: functional; conditions: MT4, 120 h, time 5 day
[6] = tested on: Human immunodeficiency virus 2; experiment: Anti-HIV activity against HIV-2 ROD infected in human MT-4 cells assessed as protection against virus-induced cytopathic effect incubated for 5 days by spectrophotometric based MTT assay; assay type: functional, organism-based; conditions: Human immunodeficiency virus 2, ROD, MT4, 120 h
[7] = Metabolic stability in human liver microsomes assessed as intrinsic clearance at 1 uM incubated for 60 mins by LC-MS/MS analysis; assay type: ADME, Microsome; conditions: read-out: CLH
[8] = tested on: Human immunodeficiency virus 1; experiment: Anti-HIV activity against wild type HIV-1 IIIB infected in human MT4 cells assessed as protection against virus-induced cytopathic effect incubated for 5 days by spectrophotometric based MTT assay; assay type: functional, organism-based; conditions: Human immunodeficiency virus 1, IIIB, MT4, 120 h
[9] = target: Structural capsid protein (Human immunodeficiency virus 1) (UniProt Q76129); experiment: Binding affinity to monomeric HIV-1 NL4.3 capsid protein assessed as residence time by SPR assay; conditions: filed as modulator
[10] = Metabolic stability in human liver microsomes assessed as half life at 1 uM incubated for 60 mins by LC-MS/MS analysis; assay type: ADME, Microsome

Chain of Structural capsid protein (Human immunodeficiency virus 1) (Q76129 as listed by the source): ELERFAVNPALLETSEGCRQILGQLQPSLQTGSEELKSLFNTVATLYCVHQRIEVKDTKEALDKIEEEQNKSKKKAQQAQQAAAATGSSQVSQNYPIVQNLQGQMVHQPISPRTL

Compound: Cc1[nH]c2ccccc2c1CC(=O)N[C@@H](Cc1ccccc1)C(=O)N(C)c1ccccc1
- TIME [1]: 0.000617 h
- EC50 [2]: 800 nM
- K [3]: 4.48 10^-1/s
- K [4]: 2.21 10^-1/s
- CC50 [5]: 134000 nM
- EC50 [6]: 2840 nM
- CLint scaled at 1 µM [7]: 2110 mL/min/kg
- EC50 [8]: 1060 nM
- TIME [9]: 0.00125 h
- half-life at 1 µM [10]: 42 s
